Data: PubChem BioAssay (NCI)
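All cell lines were grown in 96-well plates and treated with compound for 48 hours. The concentration for 50% growth inhibition is given as GI50. Definition used: TGI = concentration required for complete inhibition of growth.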

What was measured:
Assay in all cases: NCI-60 cell line screen, 48 h
[1] = system: OVCAR-8 ovarian
[2] = system: MDA-MB-435
[3] = system: A549 NSCLC
[4] = system: RXF 393 renal
[5] = system: HCT-15 colon
[6] = system: M14 melanoma
[7] = system: MALME-3M melanoma
[8] = system: TK-10 renal
[9] = system: LOX IMVI melanoma
[10] = system: HT29 colon

SMILES | GI50 [1] [µM] | TGI [1] [µM] | GI50 [2] [µM] | TGI [2] [µM] | GI50 [3] [µM] | TGI [3] [µM] | GI50 [4] [µM] | TGI [4] [µM] | GI50 [5] [µM] | TGI [5] [µM] | GI50 [6] [µM] | TGI [6] [µM] | GI50 [7] [µM] | TGI [7] [µM] | GI50 [8] [µM] | TGI [8] [µM] | GI50 [9] [µM] | TGI [9] [µM] | GI50 [10] [µM] | TGI [10] [µM]
COc1cc(C)cc2c1OC(c1ccccc1)CC2=O (stereo not given) | > 100 | > 100 | > 100 | > 100 | > 100 | > 100 | > 100 | > 100 | > 100 | > 100 | > 100 | > 100 | > 100 | > 100 | > 100 | > 100 | > 100 | > 100 | > 100 | > 100
COC(=O)C1=CN(CC2=CC(=O)C(C)=CC2=O)C=C(C(=O)OC)C1c1cccc(OC)c1OC | 16.2 | 42.8 | 15.8 | 39.3 | 13 | > 51.5 | 11.5 | 26.9 | 18.4 | 36.9 | 15.3 | 29.4 | 13.5 | 34.3 | 8.35 | 27.1 | 20 | 45.2 | 41.1 | > 100
O=C(O)CC(Cc1ccc2c(c1)OCO2)C(=O)O (stereo not given) |  | > 100 |  | > 100 |  | > 100 |  | > 100 |  | > 100 |  | > 100 |  | > 100 |  | > 100 |  | > 100 |  | > 100
[N-]=[N+]=Nc1ncc(-c2ccc(C(F)(F)F)cc2)c(NC2CCCCCC2)n1 | > 10 | > 10 | > 10 | > 10 | > 10 | > 10 | > 10 | > 10 | > 10 | > 10 | > 10 | > 10 | > 10 | > 10 | > 10 | > 10 | > 10 | > 10 | > 10 | > 10
O=C(Oc1ccccc1)c1cc(O)c(O)c(O)c1 | 9.82 | > 100 | 13.1 | > 100 | 9.64 | > 100 | 25.6 | > 100 | 5.98 | > 100 | 11.9 | 34 | 21.8 | > 100 | 29.1 | > 100 | 8.97 | > 100 | 30 | > 100
